Values of other authors, collected in article PMC2975871 (The FEBS journal, 2010).
≈ marks a conversion by molar mass, not a printed value.

For `CC(C)CN(C[C@@H](O)[C@H](Cc1ccccc1)NC(=O)O[C@H]1CO[C@H]2OCC[C@H]21)S(=O)(=O)c1ccc(N)cc1` [DRV, darunavir], the “worse inhibition relative to wild type enzyme” value (PR with mutation I50V) is listed as 9 fold.

In the case of `CC(C)(C)NC(=O)[C@@H]1C[C@@H]2CCCC[C@@H]2CN1C[C@@H](O)[C@H](Cc1ccccc1)NC(=O)[C@H](CC(N)=O)NC(=O)c1ccc2ccccc2n1` [SQV, saquinavir], the decreased inhibition (PR with mutation I50V) is given as 20 fold and the water solubility is given as 36 µg/mL (≈ 53.7 µM).

In the case of `CC(C)CN(C[C@@H](O)[C@H](Cc1ccccc1)NC(=O)O[C@H]1CCOC1)S(=O)(=O)c1ccc(N)cc1` [amprenavir], the “increased IC50” value (I54M mutation) is listed as 6 fold.

In the case of `CC(C)(C)NC(=O)[C@@H]1CN(Cc2cccnc2)CCN1C[C@@H](O)C[C@@H](Cc1ccccc1)C(=O)N[C@H]1c2ccccc2C[C@H]1O` [IDV, indinavir], the decreased inhibition (PR with mutation I50V) is listed as 50 fold.
